Laboratory results from paper PMC4389225, “Triaminopyrimidine is a fast-killing and long-acting antimalarial clinical candidate” (Nature Communications, 2015).

Assays:
Dd2-6R F4 G7 = assay: SYBR green growth assay, Dd2-6R F4 G7; conditions: Plasmodium falciparum
Protocol: Assays were carried out in 384-well format with three technical replicates within an assay day and biological replicates carried out on three different assay days to assign a final EC50.
The drug was then washed off and the parasites were allowed to recover in normal growth media.

[1] = Acute anaesthetized guinea pig cardiovascular (CVS) model, compound 12; assay type: in vivo
Protocol: Male Dunkin Hartley guinea pigs (n=6 per group; 342–401 g; 4–5 weeks old; Charles River Laboratories, L’Arbresle, Cedex) were anaesthetized with sodium pentobarbitone (60 mg kg^−1 intraperitoneally followed by 6 mg kg^−1 h^−1 i.v. (jugular) for maintenance) and mechanically ventilated. Animals were surgically prepared for the measurement of haemodynamic (blood pressure, heart rate and contractility (including left ventricular pressure)) and electrocardiographic (ECG)-derived parameters (QTcB, PR interval and QRS duration). Briefly, catheters were introduced into a carotid artery and a jugular vein for the measurement of arterial blood pressure and administration of the test item, respectively. Needle electrodes were placed subcutaneously in a lead II position for ECG recording. A fluid-filled catheter was introduced into the left ventricle via the opposite carotid artery for left ventricular pressure measurement.
Animals received two consecutive i.v. infusions of either vehicle (group 1; 40% v/v dimethylacetamide/20% v/v polyethylene glycol 400/17% w/v hydroxyl propyl beta cyclodextrin (HPβCD/kleptose) in water for injection) or compound 12 at 10 or 30 mg kg^−1 (group 2). Each infusion lasted for 15 min at a dose volume of 3 ml kg^−1 (rate of 0.2 ml kg^−1 min^−1). Animals were monitored for a further 30-min washout period. Blood samples were taken at 5, 10 and 15 min after the start of each infusion and at 5, 10, 20 and 30 min during the washout phase.
Following a stabilization period, haemodynamic and ECG parameters were measured (using HEM software, version 4.3, Notocord Systems) at 10 and 5 min before administration (mean of measurements obtained at these time points=baseline; T0), and 2.5, 5, 10 and 15 min after the start of each i.v. infusion of compound 12 or vehicle and 5, 10, 20 and 30 min after the end of the second infusion. A detailed description of the model, its background and validation has been described earlier.
All parameters were analysed statistically using SAS software. Baseline values were defined as mean of measurments taken 10 or 5 min before dosing. For each parameter, homogeneity of baseline values (T0) between the two groups were tested using a two-tailed Student’s t-test. Changes from baseline were assessed using a two-way analysis of variance (group and time) with repeated measurements over the time and group × time interaction.
Anaesthetised Guinea Pig Cardiovascular toxicity study for compound 12. Group mean ±SEM data are presented in Supplementary Fig. 16a to 16l. Mean ± standard error plasma exposure data are illustrated in Supplementary Fig. 16m. The mean of the two control recording periods was used as a baseline value. Administration of vehicle produced the expected level of variability in cardiovascular parameters over the time course of this study.
This was considered within acceptable ranges for vehicle data. Actual changes caused by compound 12 were derived by subtracting the effect of the time-matched vehicle data and are discussed using mean % change from baseline values. All findings reported below achieved statistical significance (P < 0.05), unless indicated as a trend. Isolated incidences of statistical significance, that show no relation to compound effects, were not considered of […]
Blood pressure, LVP and heart rate effect: Following i.v. administration of compound 12 at 10 mg/kg, the following observations were noted:
- A 15% decrease in dP/dtmax (an index of cardiac contractility).
As the dose increased to 30 mg/kg, the following effects were observed:
- A 8% decrease in heart rate (HR), - A 10% decrease in left ventricular systolic pressure (LVsys), - A 27% decrease in dP/dtmax.
There was evidence of recovery for dP/dtmax during the 30 minutes wash-out period.
Despite attaining statistical significance, the magnitude of the effects on dP/dtmax at […]

Cc1nc(Nc2ncc(N3CCN(C)[C@H](C)C3)c(Nc3cc(C)n(C)n3)n2)cc(C2CC2)c1F [compound 12, (R)-N2-(4-cyclopropyl-5-fluoro-6-methylpyridin-2-yl)-N4-(1,5-dimethyl-1H-pyrazol-3-yl)-5-(3,4-dimethylpiperazin-1-yl)pyrimidine-2,4-diamine]
IC50 (Dd2-6R F4 G7): 90.7 nM | PR interval, QRS duration and QTcB interval ([1]; 10 mg/kg i.v.): unaffected | decrease in dP/dtmax (index of cardiac contractility) ([1]; 10 mg/kg i.v., vehicle-corrected mean % change from baseline): 15% | decrease in heart rate (HR) ([1]; 30 mg/kg i.v.): 8% | decrease in left ventricular systolic pressure (LVsys) ([1]; 30 mg/kg i.v.): 10% | increase in QTcB ([1]; 30 mg/kg i.v.): 7% | decrease in dP/dtmax ([1]; 30 mg/kg i.v., vehicle-corrected mean % change from baseline): 27% | A—plasma Cmax free ([1]; guinea pig, 10 mg kg^−1 i.v.): 0.09 µM | Safety margin (A/B)-free Cmax ([1]; guinea pig, 10 mg kg^−1 i.v.): 10.3 | Summary of clinical signs and effects ([1]; guinea pig, 10 mg kg^−1 i.v., NOEL = no observed effect level): NOEL | Peak total plasma concentration ([1]; guinea pig, 10 mg/kg i.v.): 1.69 ± 0.15 µmol/L | A—plasma Cmax free ([1]; guinea pig, 30 mg kg^−1 i.v.): 0.28 µM | Safety margin (A/B)-free Cmax ([1]; guinea pig, 30 mg kg^−1 i.v.): 32.2 | Summary of clinical signs and effects ([1]; guinea pig, 30 mg kg^−1 i.v.): Contractility and QTcB effects | Peak total plasma concentration ([1]; guinea pig, 30 mg/kg i.v.): 5.05 ± 0.64 µmol/L | NOEL ([1]; guinea pig, i.v.): 10 mg/kg
